Experimental data reported in publication PMC10574094, “Discovery of a SHP2 Degrader with In Vivo Anti-Tumor Activity” (Molecules, 2023).

Target: T1, full-length SHP2 (1-528) (Homo sapiens, UniProt Q06124)
T1 construct: The SHP2 protein (Aa 1–528) was cloned into a pET-21a(+) vector; His; made in house; host or cells: E. coli BL21(DE3)
T1 sequence (Q06124 1-528): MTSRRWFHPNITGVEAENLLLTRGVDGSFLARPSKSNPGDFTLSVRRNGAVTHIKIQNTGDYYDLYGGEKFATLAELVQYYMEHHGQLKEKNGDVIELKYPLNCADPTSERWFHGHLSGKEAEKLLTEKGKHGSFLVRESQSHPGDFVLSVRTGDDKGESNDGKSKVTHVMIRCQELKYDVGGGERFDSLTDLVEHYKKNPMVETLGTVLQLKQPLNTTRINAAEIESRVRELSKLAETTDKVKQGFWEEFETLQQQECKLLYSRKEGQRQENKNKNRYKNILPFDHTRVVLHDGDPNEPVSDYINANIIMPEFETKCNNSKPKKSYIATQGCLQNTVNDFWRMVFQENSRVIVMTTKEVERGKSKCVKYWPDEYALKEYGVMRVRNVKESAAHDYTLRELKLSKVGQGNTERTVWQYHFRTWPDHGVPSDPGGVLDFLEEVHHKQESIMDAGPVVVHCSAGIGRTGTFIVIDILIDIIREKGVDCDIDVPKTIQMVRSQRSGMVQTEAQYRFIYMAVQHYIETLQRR
Experiment: SHP2 allosteric inhibition assay (DiFMUP substrate)
Format: biochemical
Method: The SHP2 protein (Aa 1–528) was cloned into a pET-21a(+) vector. Bacterial BL21(DE3) (Novagen) was used as an expression host, and the induction of protein expression was carried out in LB media with 1 mM IPTG at 18 °C overnight. Cell pellets were stored at −80 °C for subsequent protein purification. Protein purification was conducted at 4 °C. Frozen cell pellets were lysed by sonication in 40 mL cold lysis buffer (50 mM Tris-HCl, pH 8.0, 150 mM NaCl, 5 mM imidazole, and 1 mM PMSF) per liter cell pellet. Cell lysates were clarified by centrifuging for 15 min at 6000 rpm. The supernatant was incubated with HisPur Ni-NTA resin (Thermo Scientific, Waltham, MA, USA) for 2 h, and then packed onto a column and washed with 50 resin volume of buffer A (50 mM Tris-HCl, pH 8.0, 500 mM NaCl, 5 mM imidazole). The HIS-tagged proteins were eluted with Buffer B (50 mM Tris-HCl, pH = 8.0, 500 mM NaCl, 300 mM imidazole,). Pooled HIS-protein-containing fractions were concentrated, loaded onto a HiLoad 26/600 Superdex 75 column (GE Healthcare Biosciences, Piscataway, NJ, USA), and eluted with storage buffer (50 mM Tris-HCl, pH 8.0, 150 mM NaCl, 1 mM DTT, 10% glycerol). Proteins used for inhibition assays were purified using Ni-NTA resin (Qiagen, Hilden, Germany) followed by size exclusion column chromatography (ÄKTA pure, Cytiva, Marlborough, MA, USA) and the purity was determined to be >95% by SDS-PAGE and Coomassie staining. The protein was aliquoted and stored at −80 °C.
The catalytic activity of SHP2 (1-528) was assayed with 6,8-Difluoro-4-Methylumbelliferyl Phosphate (DiFMUP, Invitrogen, cat# D6567) as a substrate in 3,3-Dimethylglutaric acid (DMG) buffer (50 mM DMG, pH 7.0, 1 mM EDTA, 18 mM NaCl, 0.01% Triton X-100) at 25 °C. To determine the IC50 values, the assays were performed in 96-well plates (Corning Costar 3915). Series diluted compounds were incubated with 0.5 nM of SHP2 and 0.5 μM of peptide IRS1_pY1172(dPEG8)pY1222 (sequence H2N-LN(pY)IDLDLV(dPEG8)LST(pY)ASINFQK-amide). After 30 min incubation at room temperature, the substrate DiFMUP was added to the reaction (200 μM final concentration, total reaction volume is […]) and incubated at 25 °C for 10 min. The reaction was then quenched by adding 40 μL of 160 μM bpV(Phen) (Sigma–Aldrich, cat# SML0889) solution. The fluorescence signal was monitored with a CLARIOstar Plus Microplate Spectrophotometer (BMG Labtech) using excitation and emission wavelengths of 340 and 450 nm, respectively. The inhibitordose-response curves were analyzed using normalized IC50 regression curve fitting with control-based normalization. Data were fitted using Prism GraphPad 9.2.0.

With Cc1ncsc1-c1ccc([C@H](C)NC(=O)[C@@H]2C[C@@H](O)CN2C(=O)[C@@H](NC(=O)CCCCCCCCCN2CCN(C(=O)CCCCCC3(CN)CCN(c4cnc(Sc5cccc(Cl)c5Cl)c(N)n4)CC3)CC2)C(C)(C)C)cc1 [P9, (2S,4R)-1-((S)-2-(10-(4-(6-(1-(6-amino-5-((2,3-dichlorophenyl)thio)pyrazin-2-yl)-4-(aminomethyl)piperidin-4-yl)hexanoyl)piperazin-1-yl)decanamido)-3,3-dimethylbutanoyl)-4-hydroxy-N-((S)-1-(4-(4-methylthiazol-5-yl)phenyl)ethyl)pyrrolidine-2-carboxamide] the “Fold selectivity (SHP2)” value (Table S3, relative to SHP2) was 1 and the IC50 (full length SHP2, enzymatic assay) was 95 ± 3.4 nM.
